Laboratory results taken from patent publication US11691972B2, “Compounds for targeted degradation of BRD9” (C4 Therapeutics, Inc., priority 2020, dated 2023).
Where two headings read alike, the source gives them in different places.

Target: T1, BRD9 (Homo sapiens, UniProt Q9H8M2)
T1 sequence (Q9H8M2 1-597): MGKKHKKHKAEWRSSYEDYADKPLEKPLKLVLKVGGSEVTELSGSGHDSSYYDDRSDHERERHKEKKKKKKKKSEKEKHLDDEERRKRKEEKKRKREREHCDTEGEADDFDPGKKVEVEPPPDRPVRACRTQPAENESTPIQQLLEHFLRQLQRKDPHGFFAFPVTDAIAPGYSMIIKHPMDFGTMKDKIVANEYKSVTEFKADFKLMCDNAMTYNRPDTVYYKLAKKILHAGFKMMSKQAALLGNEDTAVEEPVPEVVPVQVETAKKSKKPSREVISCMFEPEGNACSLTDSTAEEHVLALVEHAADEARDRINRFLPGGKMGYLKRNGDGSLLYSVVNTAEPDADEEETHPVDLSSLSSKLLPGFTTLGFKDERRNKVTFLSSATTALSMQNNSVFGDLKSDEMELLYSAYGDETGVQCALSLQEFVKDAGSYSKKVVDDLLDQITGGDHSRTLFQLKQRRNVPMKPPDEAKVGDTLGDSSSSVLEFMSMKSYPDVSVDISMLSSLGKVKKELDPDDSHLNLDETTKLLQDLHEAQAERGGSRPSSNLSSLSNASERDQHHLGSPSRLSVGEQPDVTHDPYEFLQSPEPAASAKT
Experiment: HiBiT BRD9 degradation assay in 293T.166 (BRD9-HiBiT) cells
Format: cell-based
Parameters: endogenously expressing BRD9 with HiBiT fusion tag via CRISPR; host or cells: 293T.166 (BRD9-HiBiT), also expressing LgBiT ectopically
Details: 293T.166 cells, 2.0 hours, class symbols, read-out: HiBiT-Degradation 293T.166 BRD9 2.0 hours (DC50)
Protocol: Selected compounds were tested in a BRD9 degradation assay using the HiBit Method.
Dulbecco's modified Eagle medium (DMEM) without phenol red and fetal bovine serum (FBS) were purchased from Gibco (Grand Island, N.Y., USA). Nano-Glo® HiBiT Lytic Assay System was purchased from Promega (Madison, Wis., USA). 293T.166 (BRD9-HiBiT) cell line, endogenously expressing BRD9 with HiBiT fusion tag via CRISPR and ectopically expressing LgBiT tag, was purchased from Promega (Madison, Wis., USA). 293T.167 (BRD7-HiBiT) cell line, endogenously expressing BRD7 with HiBiT fusion tag via CRISPR and ectopically expressing LgBiT tag, was purchased from Promega (Madison, Wis., USA). 293T.92 (BRD4-HiBiT) cell line, endogenously expressing BRD4 with HiBiT fusion tag via CRISPR and ectopically expressing LgBiT tag, was generated in-house. Cell culture flasks and 384-well microplates were acquired from VWR (Radnor, Pa., USA).
BRD9 degradation was determined based on quantification of luminescent signal using Nano-Glo® HiBiT Lytic Assay kit. Test compounds were added to the 384-well plate from a top concentration of 10 μM with 11 points, half log titration in duplicates. 293T.166 cells were added into 384-well plates at a cell density of 10,000 cells per well. The plates were kept at 37° C. with 5% CO2 for 2 hours. BRD7 and BRD4 degradation was similarly determined with 293T.167 cells and 293T.92 cells, respectively. The cells treated in the absence of the test compound were the negative control and the cells without Nano-Glo® HiBiT Lytic reagent were the positive control. After 2-hour incubation, Nano-Glo® HiBiT Lytic Assay reagents were added to the cells. Luminescence was acquired on EnVision™ Multilabel Reader (PerkinElmer, Santa Clara, Calif., USA).

Row | Compound | DC50 (Table 1) | DC50 (Table 2)
1 | COc1cc(-c2cn(C)c(=O)c3cnccc23)cc(Cl)c1CN1CCC(C2CCN(c3ccc(NC4CCC(=O)NC4=O)nc3)CC2)C(F)(F)C1 (stereo not shown) [Compound 262] | – | < 100 nM
2 | COc1cc(-c2cn(C)c(=O)c(C)c2C)cc(Cl)c1CN1CCC(C2CCN(c3ccc(NC4CCC(=O)NC4=O)cc3F)CC2)C(F)(F)C1 (single isomer, unassigned) [Compound 256] | – | < 100 nM
3 | COc1cc(-c2cn(C)c(=O)c3ccccc23)cc(OC)c1CN1C2CCC1CN(C(=O)CC1CCN(c3ccc(NC4CCC(=O)NC4=O)cc3C(F)(F)F)CC1)C2 (stereo not shown) [Compound 64] | < 100 nM | –
4 | COc1cc(-c2cn(C)c(=O)c(C)c2C)cc(OC)c1C=C1CCN(C(=O)CC2CCN(c3ccc(NC4CCC(=O)NC4=O)cc3F)CC2)CC1 (stereo not shown) [Compound 162] | < 100 nM | –
5 | COc1cc(-c2cn(C)c(=O)c(C)c2C)cc(Cl)c1CN1CCC(F)(CCC2CCN(c3ccc(NC4CCC(=O)NC4=O)cc3F)CC2)CC1 (stereo not shown) [Compound 153] | < 100 nM | –
6 | COc1cc(-c2cn(C)c(=O)c3cnccc23)cc(OC)c1C(=O)N1Cc2cccc(CC3CCN(c4ccc(NC5CCC(=O)NC5=O)cc4F)CC3)c2C(F)(F)C1 (stereo not shown) [Compound 234] | < 100 nM | –
7 | COc1cc(-c2cn(C)c(=O)c(C)c2C)cc(Cl)c1CN1CCC(N2CCN(c3ccc(N(C)C4CCC(=O)NC4=O)cc3F)CC2)C(F)(F)C1 (stereo not shown) [Compound 248] | – | < 100 nM

The remaining lines, values ahead:

Row | DC50 (Table 1) | DC50 (Table 2) | Compound
8 | < 100 nM | – | COc1cc(-c2cn(C)c(=O)c3cnccc23)cc(Cl)c1CN1CCC(C2CCN(c3ccc(NC4CCC(=O)NC4=O)nc3)CC2)CC1 (stereo not shown) [Compound 89]
9 | < 100 nM | – | COc1cc(-c2cn(C)c(=O)c3[nH]ncc23)cc(F)c1C(=O)N1CCN(C(=O)CN2CCC(c3ccc(NC4CCC(=O)NC4=O)cc3)CC2)CC1 (stereo not shown) [Compound 47]
10 | < 100 nM | – | COc1cc(-c2cn(C)c(=O)c3cnccc23)cc(Cl)c1CN1CCC(N2CCN(c3ccc(NC4CCC(=O)NC4=O)cc3F)CC2)C(F)(F)C1 (single isomer, unassigned) [Compound 179, 3-[4-[4-[1-[[2-chloro-6-methoxy-4-(2-methyl-1-oxo-2,7-naphthyridin-4-yl)phenyl]methyl]-3,3-difluoro-4-piperidyl]piperazin-1-yl]-3-fluoro-anilino]piperidine-2,6-dione]
11 | < 100 nM | – | COc1cc(-c2cn(C)c(=O)c3[nH]ncc23)cc(OC)c1CC1CCN(CCN2CCC(c3ccc(NC4CCC(=O)NC4=O)cc3)CC2)CC1 (stereo not shown) [Compound 168, 3-[4-[1-[2-[4-[[2,6-dimethoxy-4-(6-methyl-7-oxo-1H-pyrazolo[3,4-c]pyridin-4-yl)phenyl]methyl]-1-piperidyl]ethyl]-4-piperidyl]anilino]piperidine-2,6-dione]
12 | < 100 nM | – | COc1cc(-c2cn(C)c(=O)c3[nH]ncc23)cc(OC)c1CN1CCN(C(=O)CC2CCN(c3ccc(NC4CCC(=O)NC4=O)cc3C(F)(F)F)CC2)CC12CC2 (stereo not shown) [Compound 58]
13 | < 100 nM | – | COc1cc(-c2cn(C)c(=O)c3cnccc23)cc(Cl)c1CN1CCC(C2CCN(c3ccc(NC4CCC(=O)NC4=O)cc3F)CC2)CC1 (stereo not shown) [Compound 78]
14 | < 100 nM | – | COc1cc(-c2cn(C)c(=O)c3[nH]ncc23)cc(OC)c1CN1CCc2c(CN3CCC(c4ccc(NC5CCC(=O)NC5=O)cc4)CC3)cccc2C1 (stereo not shown) [Compound 98]
15 | < 100 nM | – | COc1cc(-c2cn(C)c(=O)c3cnccc23)cc(Cl)c1CN1CCC(N2CCC(c3ccc(NC4CCC(=O)NC4=O)cc3F)CC2)C(F)(F)C1 (stereo not shown) [Compound 201]
16 | < 100 nM | – | COc1cc(-c2cn(C)c(=O)c3[nH]ncc23)cc(OC)c1CN1CCN(C(=O)CN2CCC(c3ccc(NC4CCC(=O)NC4=O)cc3)CC2)CC1 (stereo not shown) [Compound 1, 3-[4-[1-[2-[4-[[2,6-dimethoxy-4-(6-methyl-7-oxo-1H-pyrazolo[3,4-c]pyridin-4-yl)phenyl]methyl]piperazin-1-yl]-2-oxo-ethyl]-4-piperidyl]anilino]piperidine-2,6-dione]
